Laboratory results as given in paper PMC7075946 (Frontiers in Immunology, 2020).

Legend:
[1] = biological target: T1, human TLR7 (Homo sapiens, UniProt Q9NYK1); test: cell-based
T1 sequence (Q9NYK1 27-1049): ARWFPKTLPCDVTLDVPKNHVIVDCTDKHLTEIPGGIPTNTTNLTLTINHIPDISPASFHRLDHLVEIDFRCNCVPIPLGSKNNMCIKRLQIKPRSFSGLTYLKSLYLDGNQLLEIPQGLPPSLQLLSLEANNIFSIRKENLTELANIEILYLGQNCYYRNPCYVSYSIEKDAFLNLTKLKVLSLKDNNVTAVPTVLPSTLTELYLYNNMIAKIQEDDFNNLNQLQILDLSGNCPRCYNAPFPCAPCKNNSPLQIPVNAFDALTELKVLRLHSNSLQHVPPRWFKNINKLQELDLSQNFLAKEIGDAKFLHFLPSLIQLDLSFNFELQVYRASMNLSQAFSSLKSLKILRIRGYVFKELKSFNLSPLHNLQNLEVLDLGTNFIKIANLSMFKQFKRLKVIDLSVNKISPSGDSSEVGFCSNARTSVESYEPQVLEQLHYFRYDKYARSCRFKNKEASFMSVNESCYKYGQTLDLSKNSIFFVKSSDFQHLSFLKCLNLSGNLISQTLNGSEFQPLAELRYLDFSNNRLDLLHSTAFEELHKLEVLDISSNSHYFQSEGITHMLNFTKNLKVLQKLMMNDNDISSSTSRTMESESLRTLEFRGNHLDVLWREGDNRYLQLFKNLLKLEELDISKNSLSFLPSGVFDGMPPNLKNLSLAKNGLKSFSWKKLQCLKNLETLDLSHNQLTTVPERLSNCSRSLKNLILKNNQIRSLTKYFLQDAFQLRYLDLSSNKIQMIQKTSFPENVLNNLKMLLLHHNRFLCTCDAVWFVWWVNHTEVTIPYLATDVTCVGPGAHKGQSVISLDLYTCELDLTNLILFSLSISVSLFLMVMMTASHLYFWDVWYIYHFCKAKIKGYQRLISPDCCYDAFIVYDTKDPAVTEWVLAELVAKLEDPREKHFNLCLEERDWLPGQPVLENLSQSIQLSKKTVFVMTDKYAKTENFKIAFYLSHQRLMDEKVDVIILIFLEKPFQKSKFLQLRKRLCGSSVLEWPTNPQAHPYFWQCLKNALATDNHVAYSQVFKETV

[2] = biological target: T2, mouse TLR7 (Mus musculus, UniProt P58681); test: cell-based
T2 sequence (P58681 27-1050): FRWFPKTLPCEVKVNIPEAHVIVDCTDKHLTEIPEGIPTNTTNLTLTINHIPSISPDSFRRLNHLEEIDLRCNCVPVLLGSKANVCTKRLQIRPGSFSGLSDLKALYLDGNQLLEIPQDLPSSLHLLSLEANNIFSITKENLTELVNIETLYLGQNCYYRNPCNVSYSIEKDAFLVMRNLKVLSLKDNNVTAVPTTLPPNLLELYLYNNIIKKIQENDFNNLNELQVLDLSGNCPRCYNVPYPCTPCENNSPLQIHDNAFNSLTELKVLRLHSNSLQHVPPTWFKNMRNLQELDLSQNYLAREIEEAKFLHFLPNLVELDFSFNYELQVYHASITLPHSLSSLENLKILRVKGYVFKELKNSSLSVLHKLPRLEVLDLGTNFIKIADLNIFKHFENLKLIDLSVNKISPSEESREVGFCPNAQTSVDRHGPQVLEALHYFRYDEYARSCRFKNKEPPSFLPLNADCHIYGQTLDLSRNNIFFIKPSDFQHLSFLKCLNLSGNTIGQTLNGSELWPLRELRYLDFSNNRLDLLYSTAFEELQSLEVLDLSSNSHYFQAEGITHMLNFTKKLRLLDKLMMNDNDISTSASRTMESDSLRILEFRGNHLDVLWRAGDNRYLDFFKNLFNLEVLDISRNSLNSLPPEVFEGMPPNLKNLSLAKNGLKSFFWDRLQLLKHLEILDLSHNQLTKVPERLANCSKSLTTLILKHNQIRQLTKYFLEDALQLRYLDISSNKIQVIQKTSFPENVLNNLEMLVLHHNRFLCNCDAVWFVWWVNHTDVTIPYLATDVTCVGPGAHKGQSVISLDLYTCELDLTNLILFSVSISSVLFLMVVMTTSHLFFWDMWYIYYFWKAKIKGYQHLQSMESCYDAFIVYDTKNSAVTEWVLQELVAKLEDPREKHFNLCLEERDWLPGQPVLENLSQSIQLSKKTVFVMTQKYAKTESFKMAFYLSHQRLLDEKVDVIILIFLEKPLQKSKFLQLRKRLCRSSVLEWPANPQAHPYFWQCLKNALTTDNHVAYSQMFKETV

CCCCc1nc2c(N)nc3ccccc3c2n1CCO [UM-3001]
EC50 [1]: 1.12 µM | EC50 [2]: 0.48 µM

CCCCCCCCCCCCCCCC(=O)OC[C@H](COCCOCCOCCOP(=O)(O)OCCn1c(CCCC)nc2c(N)nc3ccccc3c21)OC(=O)CCCCCCCCCCCCCCC [UM-3003]
EC50 [1]: 34.7 µM | EC50 [2]: 12.6 µM

CCCCCCCCCCCCCCCC(=O)OC[C@H](COCCOCCOCCOCCOCCOCCOP(=O)(O)OCCn1c(CCCC)nc2c(N)nc3ccccc3c21)OC(=O)CCCCCCCCCCCCCCC [UM-3004]
EC50 [1]: 60.5 µM | EC50 [2]: 0.86 µM

CCCCCCCC/C=C\CCCCCCCC(=O)OC[C@H](COP(=O)(O)OCCc1ccc2c(c1)nc(N)c1nc(CCCC)n(CCO)c12)OC(=O)CCCCCCC/C=C\CCCCCCCC [UM-3005]
EC50 [1]: 499 µM | EC50 [2]: 1.14 µM
